# Assay results published in DBAASP.
# Assays:
# Experiment in all cases: ≥ marks a high value that may be exact or a test limit, other limits are often not marked, values filed in µg/mL are converted to µM
# [1] = system: Salmonella typhimurium KCTC 1926
# [2] = system: Pseudomonas aeruginosa KCTC 1637
# [3] = system: Staphylococcus epidermidis KCTC 1917
# [4] = system: Escherichia coli KCTC 1682
# [5] = system: Staphylococcus aureus KCTC 1621
# [6] = system: Staphylococcus aureus ATCC BAA-1556
# [7] = system: Bacillus subtilis KCTC 3068
# [8] = system: Pseudomonas aeruginosa ATCC 9027
# [9] = system: Staphylococcus aureus ATCC 6538
# [10] = system: Escherichia coli DH5alpha
MIC [1] [µM],MIC [2] [µM],MIC [3] [µM],MIC [4] [µM],MIC [5] [µM],MIC [6] [µM],MIC [7] [µM],MIC [10] [µM],SMILES,MIC [8] [µM],MIC [9] [µM]
–,–,–,–,–,≥ 100,–,–,CC(C)C[C@H](NC(=O)[C@H](CC(C)C)NC(=O)[C@H](CCCCN)NC(=O)[C@H](CC(C)C)NC(=O)[C@H](CC(C)C)NC(=O)[C@H](CC(C)C)NC(=O)[C@H](CCCCN)NC(=O)[C@H](CC(C)C)NC(=O)[C@@H](N)CC(C)C)C(=O)O [LLKLLLKLL],–,–
2.7,10.8,2.7,2.7,2.7,–,5.41,–,CC[C@H](C)[C@H](N)C(=O)N[C@@H](CC(C)C)C(=O)N1CCC[C@H]1C(=O)N[C@@H](Cc1c[nH]c2ccccc12)C(=O)N[C@@H](CCCCN)C(=O)N[C@@H](Cc1c[nH]c2ccccc12)C(=O)N1CCC[C@H]1C(=O)N[C@@H](CCCCN)C(=O)N[C@@H](Cc1c[nH]c2ccccc12)C(=O)N1CCC[C@H]1C(=O)N[C@@H](Cc1c[nH]c2ccccc12)C(=O)N[C@@H](CCCN=C(N)N)C(=O)N[C@@H](CCCN=C(N)N)C(N)=O [ILPWKWPKWPWRR],–,–
4,8,4,4,4,–,2,–,C[C@@H](O)[C@H](NC(=O)[C@H](CCCCN)NC(=O)[C@H](Cc1c[nH]c2ccccc12)NC(=O)[C@H](Cc1c[nH]c2ccccc12)NC(=O)[C@@H](NC(=O)[C@H](CCCCN)NC(=O)[C@@H](N)CCCCN)[C@@H](C)O)C(=O)N[C@@H](Cc1c[nH]c2ccccc12)C(=O)N[C@@H](Cc1c[nH]c2ccccc12)C(=O)N[C@H](C(=O)N[C@@H](CCCCN)C(=O)N[C@@H](Cc1c[nH]c2ccccc12)C(=O)N[C@@H](CO)C(=O)N[C@@H](CCC(N)=O)C(=O)N1CCC[C@H]1C(=O)O)[C@@H](C)O [KKTWWKTWWTKWSQP],–,–
–,–,–,–,–,–,–,12.5,C[C@@H](O)[C@H](NC(=O)[C@H](CCCN=C(N)N)NC(=O)[C@H](CCCN=C(N)N)NC(=O)[C@H](CC(N)=O)NC(=O)[C@H](Cc1c[nH]c2ccccc12)NC(=O)[C@H](CCCN=C(N)N)NC(=O)[C@H](Cc1c[nH]c2ccccc12)NC(=O)[C@@H](N)CCCN=C(N)N)C(=O)NCC(=O)N[C@@H](CCCN=C(N)N)C(=O)N[C@@H](Cc1c[nH]c2ccccc12)C(=O)N[C@@H](CCCN=C(N)N)C(=O)N[C@@H](Cc1c[nH]c2ccccc12)C(=O)N[C@@H](Cc1ccc(O)cc1)C(=O)O [RWRWNRRTGRWRWY],–,–
4,8,1,2,2,–,4,–,CC[C@H](C)[C@H](NC(=O)[C@H](CCCN=C(N)N)NC(=O)[C@H](CCC(N)=O)NC(=O)[C@@H](NC(=O)[C@@H](NC(=O)[C@H](CCCN=C(N)N)NC(=O)[C@@H](N)CCCCN)[C@@H](C)CC)C(C)C)C(=O)N[C@@H](CCCCN)C(=O)N[C@@H](CC(=O)O)C(=O)N[C@@H](Cc1c[nH]c2ccccc12)C(=O)N[C@@H](CC(C)C)C(=O)N[C@@H](CCCN=C(N)N)C(N)=O [KRIVQRIKDWLR],–,–
8,8,8,4,8,–,8,–,CC[C@H](C)[C@H](NC(=O)[C@H](C)NC(=O)[C@H](CCCN=C(N)N)NC(=O)[C@@H]1CCCN1C(=O)[C@H](CC(C)C)NC(=O)[C@H](CC(N)=O)NC(=O)[C@H](Cc1ccc(O)cc1)NC(=O)CNC(=O)[C@H](C)NC(=O)[C@@H](NC(=O)[C@@H](NC(=O)[C@@H](NC(=O)[C@H](CCCN=C(N)N)NC(=O)[C@@H](NC(=O)[C@@H](NC(=O)[C@H](CC(C)C)NC(=O)[C@H](Cc1ccc(O)cc1)NC(=O)[C@H](Cc1c[nH]c2ccccc12)NC(=O)[C@@H](NC(=O)[C@H](CCCN=C(N)N)NC(=O)[C@H](CCCCN)NC(=O)[C@@H](NC(=O)[C@@H](N)CCCN=C(N)N)C(C)C)C(C)C)C(C)C)[C@@H](C)CC)[C@@H](C)O)C(C)C)[C@@H](C)CC)C(=O)N[C@@H](CCCCN)C(=O)N[C@@H](CCCCN)C(=O)N[C@@H](CCCCN)C(=O)O [RVKRVWYLVIRTVIAGYNLPRAIKKK],–,–

# More lines, now with the values behind:
SMILES,MIC [1] [µM],MIC [2] [µM],MIC [3] [µM],MIC [4] [µM],MIC [5] [µM],MIC [6] [µM],MIC [7] [µM],MIC [10] [µM],MIC [8] [µM],MIC [9] [µM]
CC[C@H](C)[C@H](N)C(=O)N[C@@H](CC(C)C)C(=O)NCC(=O)N[C@@H](CCCCN)C(=O)N[C@H](C(=O)N[C@@H](C)C(=O)N[C@@H](CCC(=O)O)C(=O)NCC(=O)N[C@H](C(=O)N[C@@H](CCCCN)C(=O)N[C@@H](CO)C(=O)N[C@@H](CC(C)C)C(=O)N[C@@H](Cc1ccccc1)C(N)=O)[C@@H](C)CC)[C@@H](C)CC [ILGKIAEGIKSLF],≥ 64,≥ 32,≥ 64,≥ 64,≥ 64,–,–,–,–,–
CC(C)C[C@H](NC(=O)[C@H](C)NC(=O)[C@H](Cc1c[nH]c2ccccc12)NC(=O)[C@H](CCCCN)NC(=O)[C@H](CC(N)=O)NC(=O)[C@H](Cc1c[nH]c2ccccc12)NC(=O)[C@H](CCCCN)NC(=O)[C@H](CCCCN)NC(=O)[C@H](CCCN=C(N)N)NC(=O)[C@@H](N)Cc1ccccc1)C(=O)N[C@@H](CO)C(=O)N[C@@H](CCCN=C(N)N)C(N)=O [FRKKWNKWALSR],4,16,8,4,16,–,8,–,–,–
CC[C@H](C)[C@H](N)C(=O)N[C@@H](CC(C)C)C(=O)N1CCC[C@H]1C(=O)N[C@@H](Cc1c[nH]c2ccccc12)C(=O)N[C@@H](CCCCN)C(=O)N[C@@H](CCCCN)C(=O)N1CCC[C@H]1C(=O)N[C@@H](CCCCN)C(=O)N[C@@H](CCCCN)C(=O)N1CCC[C@H]1C(=O)N[C@@H](CCCCN)C(=O)N[C@@H](CCCN=C(N)N)C(=O)N[C@@H](CCCN=C(N)N)C(N)=O [ILPWKKPKKPKRR],2.98,5.97,2.98,5.97,5.97,–,5.97,–,–,–
CC[C@H](C)[C@H](N)C(=O)NCC(=O)N[C@@H](CCCCN)C(=O)N[C@@H](CCCCN)C(=O)N[C@@H](Cc1ccccc1)C(=O)N[C@@H](CCCCN)C(=O)N[C@@H](CCCN=C(N)N)C(=O)N[C@H](C(=O)N[C@H](C(=O)N[C@@H](CCCCN)C(=O)N[C@@H](CCCN=C(N)N)C(=O)N[C@H](C(=O)N[C@@H](CCCCN)C(=O)N[C@@H](CCCCN)C(=O)N[C@@H](Cc1c[nH]c2ccccc12)C(=O)N[C@@H](CC(C)C)C(=O)N[C@@H](CCCN=C(N)N)C(=O)N[C@@H](CCCCN)C(=O)N[C@@H](CC(C)C)C(=O)O)[C@@H](C)CC)C(C)C)[C@@H](C)CC [IGKKFKRIVKRIKKWLRKL],2,4,4,4,2,–,2,–,–,–
CC(C)C[C@H](NC(=O)[C@H](C)NC(=O)[C@H](Cc1ccccc1)NC(=O)[C@H](CCCCN)NC(=O)[C@H](CCCCN)NC(=O)[C@H](CC(C)C)NC(=O)[C@H](C)NC(=O)[C@H](CCCCN)NC(=O)[C@H](C)NC(=O)[C@H](CC(C)C)NC(=O)[C@H](CC(C)C)NC(=O)[C@H](CCCCN)NC(=O)[C@H](C)NC(=O)[C@@H](N)Cc1ccccc1)C(N)=O [FAKLLAKALKKFAL],–,–,–,–,–,–,–,–,16,32
CC[C@H](C)[C@H](N)C(=O)N[C@@H](CC(C)C)C(=O)N[C@@H](CCCCN)C(=O)N[C@@H](Cc1c[nH]c2ccccc12)C(=O)N[C@@H](CCCCN)C(=O)N[C@@H](Cc1c[nH]c2ccccc12)C(=O)N[C@@H](CCCCN)C(=O)N[C@@H](Cc1c[nH]c2ccccc12)C(=O)N[C@@H](Cc1c[nH]c2ccccc12)C(=O)N[C@@H](CCCCN)C(=O)N[C@@H](Cc1c[nH]c2ccccc12)C(=O)N[C@@H](CCCN=C(N)N)C(=O)N[C@@H](CCCN=C(N)N)C(N)=O [ILKWKWKWWKWRR],2.5,5,5,5,2.5,–,2.5,–,–,–
